Reference: US11485742B2, “2-azaspiro[3.4]octane derivatives as M4 agonists” (NOVARTIS AG, priority 2019, dated 2022)

Tests used:
[1] = molecular target: T1, human cloned CHRM4 receptor (Homo sapiens, UniProt P08173); assay: CHRM4 Ca++ Flux Assay (M4_CHO cells, agonist mode); type: cell-based; conditions: for M4 FDSS PA % / Emax: Percent Activity (PA); for EC50: geometric mean if tested more than once, read-out: M4 FDSS EC50; for Emax: read-out: M4 FDSS PA %
T1 construct: expressed in transfected cells; host or cells: CHO-K1 (M4_CHO)
T1 sequence (P08173 1-479): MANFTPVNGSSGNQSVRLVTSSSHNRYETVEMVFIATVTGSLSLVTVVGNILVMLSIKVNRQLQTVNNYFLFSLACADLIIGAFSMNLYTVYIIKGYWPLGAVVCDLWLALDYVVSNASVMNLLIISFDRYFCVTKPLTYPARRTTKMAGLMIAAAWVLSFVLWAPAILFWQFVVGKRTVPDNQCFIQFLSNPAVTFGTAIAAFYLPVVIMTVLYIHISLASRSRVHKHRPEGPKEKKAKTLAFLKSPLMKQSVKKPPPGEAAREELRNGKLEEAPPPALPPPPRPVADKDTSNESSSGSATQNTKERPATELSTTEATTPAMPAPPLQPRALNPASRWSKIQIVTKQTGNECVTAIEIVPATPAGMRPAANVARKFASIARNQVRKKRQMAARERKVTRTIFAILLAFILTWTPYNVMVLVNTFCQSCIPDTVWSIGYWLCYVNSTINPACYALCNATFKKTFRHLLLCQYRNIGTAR
Outline: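 CHO-K1 cells stably expressing human M4 were dye-loaded, then held 60 min at RT in Ca/Mg-free HBSS buffer with 20 μM ATP. Ca++ traces were recorded over 3 min after an 11-point compound series in triplicate, agonist mode, with a four-parameter fit. Percent activity is relative to the carbachol EC100; repeat tests are geometric means.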

[2] = molecular target: T2, Cloned human M1 receptor (CHRM1) (Homo sapiens, UniProt P11229); assay: CHRM1 Ca++ Flux Assay (HEK293 M1 cells, agonist mode); type: cell-based; conditions: for M1 FDSS PA % / Emax: Percent Activity (PA); for EC50: geometric mean if tested more than once, read-out: M1 FDSS EC50; for Emax: read-out: M1 FDSS PA %
T2 construct: expressed in transfected cells; host or cells: HEK293
T2 sequence (P11229 1-460): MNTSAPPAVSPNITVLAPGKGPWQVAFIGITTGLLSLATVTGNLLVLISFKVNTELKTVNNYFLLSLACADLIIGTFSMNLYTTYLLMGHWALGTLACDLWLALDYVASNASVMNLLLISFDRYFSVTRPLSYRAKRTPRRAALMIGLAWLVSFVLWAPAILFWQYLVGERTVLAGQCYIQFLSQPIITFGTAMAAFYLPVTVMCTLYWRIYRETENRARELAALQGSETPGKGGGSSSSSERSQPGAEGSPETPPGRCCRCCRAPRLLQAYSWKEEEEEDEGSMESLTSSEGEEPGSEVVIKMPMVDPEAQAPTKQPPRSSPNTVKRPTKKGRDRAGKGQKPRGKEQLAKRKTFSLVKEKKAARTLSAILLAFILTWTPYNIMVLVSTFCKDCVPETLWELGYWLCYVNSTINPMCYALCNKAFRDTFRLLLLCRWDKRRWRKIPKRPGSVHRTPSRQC
Outline: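 HEK293 cells stably expressing human M1 were loaded with Ca++ dye, then given compounds (11-point dose, triplicate) in HBSS −Ca/−Mg, 20 mM HEPES. Ca++ flux was read over 3 min (agonist mode). Four-parameter curves were fitted, with activity as percent of carbachol EC100.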

| M4 FDSS PA % [1] [%] | EC50 [1] [nM] | M1 FDSS PA % [2] [%] | EC50 [2] [nM] | Emax [1] [%] | Emax [2] [%] | SMILES |
| --- | --- | --- | --- | --- | --- | --- |
| 40 | 1780 | 42 | 11300 |  |  | C[C@H](Oc1ccc(F)cc1C1CCN([C@@H]2COC3(C2)CN(c2nnco2)C3)CC1)C1CCOCC1 [Example 2X, (S)-7-(4-(5-fluoro-2-((S)-1-(tetrahydro-2H-pyran-4-yl)ethoxy)phenyl)piperidin-1-yl)-2-(1,3,4-oxadiazol-2-yl)-5-oxa-2-azaspiro[3.4]octane or(S)-7-(4-(5-fluoro-2-((R)-1-(tetrahydro-2H-pyran-4-yl)ethoxy)phenyl)piperidin-1-yl)-2-(1,3,4-oxadiazol-2-yl)-5-oxa-2-azaspiro[3.4]octane] |
|  | 21 |  | 1090 | 75 | 74 | Fc1ccc(C2CCOCC2)c(C2CCN([C@@H]3COC4(C3)CN(c3ncco3)C4)CC2)c1 [Example 4W, (S)-7-(4-(5-fluoro-2-(tetrahydro-2H-pyran-4-yl)phenyl)piperidin-1-yl)-2-(oxazol-2-yl)-5-oxa-2-azaspiro[3.4]octane] |
|  | 34 |  | 631 | 77 | 87 | Fc1ccc(O[C@H]2CCOC2)c(C2CCN([C@@H]3COC4(C3)CN(c3nnco3)C4)CC2)c1 [Example 1H, (S)-7-(4-(5-fluoro-2-(((S)-tetrahydrofuran-3-yl)oxy)phenyl)piperidin-1-yl)-2-(1,3,4-oxadiazol-2-yl)-5-oxa-2-azaspiro[3.4]octane] |
| 76 | 554 | 51 | 10800 |  |  | C[C@H](Oc1ccc(F)cc1C1CCN([C@@H]2COC3(C2)CN(c2nnco2)C3)CC1)C1CCOCC1 (single isomer, unassigned) [Example 2Y, (S)-7-(4-(5-fluoro-2-((S)-1-(tetrahydro-2H-pyran-4-yl)ethoxy)phenyl)piperidin-1-yl)-2-(1,3,4-oxadiazol-2-yl)-5-oxa-2-azaspiro[3.4]octane or (S)-7-(4-(5-fluoro-2-((R)-1-(tetrahydro-2H-pyran-4-yl)ethoxy)phenyl)piperidin-1-yl)-2-(1,3,4-oxadiazol-2-yl)-5-oxa-2-azaspiro[3.4]octane] |
|  | 17 |  | 745 | 69 | 63 | c1ccc(C2CCN([C@@H]3COC4(C3)CN(c3ncco3)C4)CC2)c(O[C@H]2CCOC2)c1 [Example 4H, (S)-2-(oxazol-2-yl)-7-(4-(2-(((S)-tetrahydrofuran-3-yl)oxy)phenyl)piperidin-1-yl)-5-oxa-2-azaspiro[3.4]octane] |
|  | 946 |  | 7000 | 91 | 65 | Fc1cc(F)c(OC2CCOCC2)c(C2CCN([C@@H]3COC4(C3)CN(c3nnco3)C4)CC2)c1 [Example 2BB, (S)-7-(4-(3,5-difluoro-2-((tetrahydro-2H-pyran-4-yl)oxy)phenyl)piperidin-1-yl)-2-(1,3,4-oxadiazol-2-yl)-5-oxa-2-azaspiro[3.4]octane] |
|  | 108 |  | 5060 | 51 | 11 | Fc1ccc(OCC2C3COCC32)c(C2CCN([C@@H]3COC4(C3)CN(c3nnco3)C4)CC2)c1 (stereo partly drawn) [Example 2Z, (7S)-7-(4-(2-((3-oxabicyclo[3.1.0]hexan-6-yl)methoxy)-5-fluorophenyl)piperidin-1-yl)-2-(1,3,4-oxadiazol-2-yl)-5-oxa-2-azaspiro[3.4]octane] |
|  | 86 |  | 413 | 58 | 91 | CC(C)(O)CCOc1ccc(F)cc1C1CCN([C@@H]2COC3(C2)CN(c2nncs2)C3)CC1 [Example 5P, (S)-4-(2-(1-(2-(1,3,4-thiadiazol-2-yl)-5-oxa-2-azaspiro[3.4]octan-7-yl)piperidin-4-yl)-4-fluorophenoxy)-2-methylbutan-2-ol] |
| 62 | 42 | 55 | 2240 |  |  | CC(C)(O)[C@H]1C[C@@H](Oc2ccc(F)cc2C2CCN([C@@H]3COC4(C3)CN(c3ncco3)C4)CC2)C1 (single isomer, unassigned) [Example 4U, 2-((1R,3s)-3-(4-fluoro-2-(1-((S)-2-(oxazol-2-yl)-5-oxa-2-azaspiro[3.4]octan-7-yl)piperidin-4-yl)phenoxy)cyclobutyl)propan-2-ol or 2-((1S,3r)-3-(4-fluoro-2-(1-((S)-2-(oxazol-2-yl)-5-oxa-2-azaspiro[3.4]octan-7-yl)piperidin-4-yl)phenoxy)cyclobutyl)propan-2-ol] |
|  | 21 |  | 624 | 74 | 89 | Fc1ccc(C2CCN([C@@H]3COC4(C3)CN(c3ncco3)C4)CC2)c(OC2COC2)c1 [Example 4S, (S)-7-(4-(4-fluoro-2-(oxetan-3-yloxy)phenyl)piperidin-1-yl)-2-(oxazol-2-yl)-5-oxa-2-azaspiro[3.4]octane] |
|  | 30 |  | 1670 | 82 | 72 | c1ccc(C2CCN([C@@H]3COC4(C3)CN(c3ncco3)C4)CC2)c(OC2CCOCC2)c1 [Example 4J, (S)-2-(oxazol-2-yl)-7-(4-(2-((tetrahydro-2H-pyran-4-yl)oxy)phenyl)piperidin-1-yl)-5-oxa-2-azaspiro[3.4]octane] |
|  | 3 |  | 128 | 70 | 95 | c1ccc(C2CCN([C@@H]3COC4(C3)CN(c3ncco3)C4)CC2)c(-c2cncnc2)c1 [Example 4R, (S)-2-(oxazol-2-yl)-7-(4-(2-(pyrimidin-5-yl)phenyl)piperidin-1-yl)-5-oxa-2-azaspiro[3.4]octane] |
|  | 13 |  | 311 | 76 | 88 | Fc1ccc(OC2COC2)c(C2CCN([C@@H]3COC4(C3)CN(c3nncs3)C4)CC2)c1 [Example 5G, (S)-7-(4-(5-fluoro-2-(oxetan-3-yloxy)phenyl)piperidin-1-yl)-2-(1,3,4-thiadiazol-2-yl)-5-oxa-2-azaspiro[3.4]octane] |
| 85 | 124 | 96 | 2570 |  |  | OC[C@H]1C[C@H](Oc2ccc(F)cc2C2CCN([C@@H]3COC4(C3)CN(c3nnco3)C4)CC2)C1 (single isomer, unassigned) [Example 2HH, ((1S,3r)-3-(2-(1-((S)-2-(1,3,4-oxadiazol-2-yl)-5-oxa-2-azaspiro[3.4]octan-7-yl)piperidin-4-yl)-4-fluorophenoxy)cyclobutyl)methanol or ((1R,3s)-3-(2-(1-((S)-2-(1,3,4-oxadiazol-2-yl)-5-oxa-2-azaspiro[3.4]octan-7-yl)piperidin-4-yl)-4-fluorophenoxy)cyclobutyl)methanol] |
|  | 7 |  | 382 | 80 | 79 | c1ccc(C2CCN([C@@H]3COC4(C3)CN(c3ncco3)C4)CC2)c(OC2COC2)c1 [Example 4C, (S)-2-(oxazol-2-yl)-7-(4-(2-(oxetan-3-yloxy)phenyl)piperidin-1-yl)-5-oxa-2-azaspiro[3.4]octane] |
|  | 25 |  | 444 | 66 | 60 | CC(C)(O)COc1ccc(F)cc1C1CCN([C@@H]2COC3(C2)CN(c2ncco2)C3)CC1 [Example 4K, (S)-1-(4-fluoro-2-(1-(2-(oxazol-2-yl)-5-oxa-2-azaspiro[3.4]octan-7-yl)piperidin-4-yl)phenoxy)-2-methylpropan-2-ol] |

| SMILES | M4 FDSS PA % [1] [%] | EC50 [1] [nM] | M1 FDSS PA % [2] [%] | EC50 [2] [nM] | Emax [1] [%] | Emax [2] [%] |
| --- | --- | --- | --- | --- | --- | --- |
| COC(C)(C)CCOc1ccc(F)cc1C1CCN([C@@H]2COC3(C2)CN(c2nncs2)C3)CC1 [Example 5N, (S)-7-(4-(5-fluoro-2-(3-methoxy-3-methylbutoxy)phenyl)piperidin-1-yl)-2-(1,3,4-thiadiazol-2-yl)-5-oxa-2-azaspiro[3.4]octane] |  | 68 |  | 2970 | 61 | 68 |
